Test results taken from patent publication US11702404B2, “GLP-1R modulating compounds” (priority 2019, dated 2023).

Assays:
[1] = Microsomal stability, human liver microsomes (predicted hepatic clearance); conditions: predicted from in vitro microsomal stability data
GLP-1R = GLP-1R (Homo sapiens, UniProt P43220); experiment: GLP-1R activation: cAMP increase in CHO cells stably expressing GLP-1R; format: cell-based; conditions: cAMP increase, CHO cells stably expressing GLP-1R, 10 point dose response, 30 minutes incubation; read-out: EC50
Chain of GLP-1R (P43220 24-463): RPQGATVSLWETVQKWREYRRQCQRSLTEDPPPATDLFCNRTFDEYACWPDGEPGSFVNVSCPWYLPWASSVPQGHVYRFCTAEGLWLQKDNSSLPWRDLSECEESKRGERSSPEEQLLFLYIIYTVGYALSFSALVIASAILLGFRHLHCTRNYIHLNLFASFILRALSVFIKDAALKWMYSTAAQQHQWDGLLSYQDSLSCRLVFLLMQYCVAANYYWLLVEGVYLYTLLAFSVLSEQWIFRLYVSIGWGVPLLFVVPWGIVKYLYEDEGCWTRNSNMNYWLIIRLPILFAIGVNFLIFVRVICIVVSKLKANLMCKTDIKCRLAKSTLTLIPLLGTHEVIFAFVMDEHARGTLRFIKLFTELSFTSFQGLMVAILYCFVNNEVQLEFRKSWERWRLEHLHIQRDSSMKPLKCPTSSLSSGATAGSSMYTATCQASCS

Row | SMILES | Predicted Hepatic Clearance (Pred. Cl.) [1] | EC50 (GLP-1R)
1 | C[C@@H](C1CC1)n1c(Cc2ccc(-c3cccc(OCc4ccc(C#N)cc4F)n3)cc2F)nc2ccc(C(=O)O)cc21 [Example 220, (S)-2-(4-(6-((4-cyano-2-fluorobenzyl)oxy)pyridin-2-yl)-2-fluorobenzyl)-1-(1-cyclopropylethyl)-1H-benzo[d]imidazole-6-carboxylic acid] | 6.5 mL/min/kg | 37.8 nM
2 | N#Cc1ccc(COc2cccc(-c3ccc(Cc4nc5cccc(C(=O)O)c5n4CC4(CF)CC4)c(F)c3)n2)c(F)c1 [Example 224, 2-(4-(6-((4-cyano-2-fluorobenzyl)oxy)pyridin-2-yl)-2-fluorobenzyl)-1-((1-(fluoromethyl)cyclopropyl)methyl)-1H-benzo[d]imidazole-7-carboxylic acid] | 7.5 mL/min/kg | 23.6 nM
3 | Cn1nnc(Cn2c(Cc3ccc(-c4cccc(OCc5ccc(C#N)cc5F)n4)cc3F)nc3ccc(C(=O)O)cc32)n1 [Example 226, 2-(4-(6-((4-cyano-2-fluorobenzyl)oxy)pyridin-2-yl)-2-fluorobenzyl)-1-((2-methyl-2H-tetrazol-5-yl)methyl)-1H-benzo[d]imidazole-6-carboxylic acid] | 3.67 mL/min/kg | 139 nM
4 | COCCn1c(Cc2ccc(-c3cccc(OCc4ccc(CC#N)cc4)n3)cc2F)nc2ccc(C(=O)O)cc21 [Example 229, 2-(4-(6-((4-(cyanomethyl)benzyl)oxy)pyridin-2-yl)-2-fluorobenzyl)-1-(2-methoxyethyl)-1H-benzo[d]imidazole-6-carboxylic acid] | 8.67 mL/min/kg | 35.4 nM
5 | COCCOCCn1c(Cc2ccc(-c3cccc(OCc4ccc(C#N)cc4F)n3)cc2F)nc2ccc(C(=O)O)cc21 [Example 230, 2-(4-(6-((4-cyano-2-fluorobenzyl)oxy)pyridin-2-yl)-2-fluorobenzyl)-1-(2-(2-methoxyethoxy)ethyl)-1H-benzo[d]imidazole-6-carboxylic acid] | 12 mL/min/kg | 27.4 nM
6 | N#Cc1ccc(COc2cccc(-c3ccc(Cc4nc5ccc(C(=O)O)cc5n4CC45CCC(CC4)O5)c(F)c3)n2)c(F)c1 [Example 231, 1-(7-oxabicyclo[2.2.1]heptan-1-ylmethyl)-2-(4-(6-((4-cyano-2-fluorobenzyl)oxy)pyridin-2-yl)-2-fluorobenzyl)-1H-benzo[d]imidazole-6-carboxylic acid] | 8.17 mL/min/kg | 35.4 nM
7 | COCCn1c(Cc2ccc(-c3cccc(OCc4csc(C#N)c4)n3)cc2F)nc2ccc(C(=O)O)cc21 [Example 235, 2-(4-(6-((5-cyanothiophen-3-yl)methoxy)pyridin-2-yl)-2-fluorobenzyl)-1-(2-methoxyethyl)-1H-benzo[d]imidazole-6-carboxylic acid] | 8.42 mL/min/kg | 317 nM
8 | COCCn1c(Cc2ccc(-c3cccc(OCc4ccc(C#N)cc4OCC(F)(F)F)n3)cc2F)nc2ccc(C(=O)O)cc21 [Example 236, 2-(4-(6-((4-cyano-2-(2,2,2-trifluoroethoxy)benzyl)oxy)pyridin-2-yl)-2-fluorobenzyl)-1-(2-methoxyethyl)-1H-benzo[d]imidazole-6-carboxylic acid] | <1.83 mL/min/kg | 306 nM
9 | COCCn1c(Cc2ccc(-c3cccc(OCc4ccc(C#N)cc4F)n3)cc2C#Cc2ccccc2)nc2ccc(C(=O)O)cc21 [Example 237, 2-(4-(6-((4-cyano-2-fluorobenzyl)oxy)pyridin-2-yl)-2-(phenylethynyl)benzyl)-1-(2-methoxyethyl)-1H-benzo[d]imidazole-6-carboxylic acid] | 11.2 mL/min/kg | 19.2 nM
10 | COCCn1c(Cc2ccc(-c3cccc(OCc4cccc5c4OCCC5)n3)cc2F)nc2ccc(C(=O)O)cc21 [Example 241, 2-(4-(6-(chroman-8-ylmethoxy)pyridin-2-yl)-2-fluorobenzyl)-1-(2-methoxyethyl)-1H-benzo[d]imidazole-6-carboxylic acid] | 9.83 mL/min/kg | 35.1 nM
11 | CCn1c(Cc2ccc(-c3cccc(OCc4ccc(C#N)cc4F)n3)cc2F)nc2ccc(C(=O)O)cc21 [Example 242, 2-(4-(6-((4-cyano-2-fluorobenzyl)oxy)pyridin-2-yl)-2-fluorobenzyl)-1-ethyl-1H-benzo[d]imidazole-6-carboxylic acid] | <1.83 mL/min/kg | 18.4 nM
12 | COCCn1c(Cc2ccc(-c3cccc(OCc4ccc(Cl)cc4OCC(F)F)n3)cc2F)nc2ccc(C(=O)O)cc21 [Example 244, 2-(4-(6-((4-chloro-2-(2,2-difluoroethoxy)benzyl)oxy)pyridin-2-yl)-2-fluorobenzyl)-1-(2-methoxyethyl)-1H-benzo[d]imidazole-6-carboxylic acid] | 5.67 mL/min/kg | 159 nM

Stronger by EC50 (GLP-1R), values ahead:

Row | Predicted Hepatic Clearance (Pred. Cl.) [1] | EC50 (GLP-1R) | SMILES
13 | 3.5 mL/min/kg | 5.28 nM | N#Cc1ccc(COc2cccc(-c3ccc(Cc4nc5cc(F)c(C(=O)O)cc5n4CC4(CF)CC4)c(F)c3)n2)c(F)c1 [Example 221, 2-(4-(6-((4-cyano-2-fluorobenzyl)oxy)pyridin-2-yl)-2-fluorobenzyl)-5-fluoro-1-((1-(fluoromethyl)cyclopropyl)methyl)-1H-benzo[d]imidazole-6-carboxylic acid]
14 | 5 mL/min/kg | 6.79 nM | C[C@H](C1CC1)n1c(Cc2ccc(-c3cccc(OCc4ccc(C#N)cc4F)n3)cc2F)nc2ccc(C(=O)O)cc21 [Example 222, (R)-2-(4-(6-((4-cyano-2-fluorobenzyl)oxy)pyridin-2-yl)-2-fluorobenzyl)-1-(1-cyclopropylethyl)-1H-benzo[d]imidazole-6-carboxylic acid]
15 | 3.5 mL/min/kg | 16.4 nM | N#Cc1ccc(COc2cccc(-c3ccc(Cc4nc5ccc(C(=O)O)cc5n4C4CCC4)c(F)c3)n2)c(F)c1 [Example 223, 2-(4-(6-((4-cyano-2-fluorobenzyl)oxy)pyridin-2-yl)-2-fluorobenzyl)-1-cyclobutyl-1H-benzo[d]imidazole-6-carboxylic acid]
16 | 3.5 mL/min/kg | 13.1 nM | N#Cc1ccc(COc2cccc(-c3ccc(Cc4nc5ccc(C(=O)O)cc5n4[C@@H]4CCOC4)c(F)c3)n2)c(F)c1 [Example 225, (R)-2-(4-(6-((4-cyano-2-fluorobenzyl)oxy)pyridin-2-yl)-2-fluorobenzyl)-1-(tetrahydrofuran-3-yl)-1H-benzo[d]imidazole-6-carboxylic acid]
17 | 4.83 mL/min/kg | 4.87 nM | COCCn1c(Cc2ccc(-c3cccc(OCc4ccc(C#N)cc4F)n3)cc2C#CC2CC(F)(F)C2)nc2ccc(C(=O)O)cc21 [Example 228, 2-(4-(6-((4-cyano-2-fluorobenzyl)oxy)pyridin-2-yl)-2-((3,3-difluorocyclobutyl)ethynyl)benzyl)-1-(2-methoxyethyl)-1H-benzo[d]imidazole-6-carboxylic acid]
18 | 18.7 mL/min/kg | 17.8 nM | COCCn1c(Cc2ccc(-c3cccc(OCc4ccc(C#N)cc4F)n3)cc2C#CC2(C)COC2)nc2ccc(C(=O)O)cc21 [Example 232, 2-(4-(6-((4-cyano-2-fluorobenzyl)oxy)pyridin-2-yl)-2-((3-methyloxetan-3-yl)ethynyl)benzyl)-1-(2-methoxyethyl)-1H-benzo[d]imidazole-6-carboxylic acid]
19 | 10.3 mL/min/kg | 1.35 nM | COc1cc(Cl)ccc1COc1nccc(-c2ccc(Cc3nc4ccc(C(=O)O)nc4n3CC3(CF)CC3)cc2F)n1 [Example 233, 2-(4-(2-((4-chloro-2-methoxybenzyl)oxy)pyrimidin-4-yl)-3-fluorobenzyl)-3-((1-(fluoromethyl)cyclopropyl)methyl)-3H-imidazo[4,5-b]pyridine-5-carboxylic acid]
20 | <1.83 mL/min/kg | 6.95 nM | COCCn1c(Cc2ccc(-c3cccc(OCc4ccc(C#N)cc4OC(F)F)n3)cc2F)nc2ccc(C(=O)O)cc21 [Example 234, 2-(4-(6-((4-cyano-2-(difluoromethoxy)benzyl)oxy)pyridin-2-yl)-2-fluorobenzyl)-1-(2-methoxyethyl)-1H-benzo[d]imidazole-6-carboxylic acid]
21 | 8.67 mL/min/kg | 12 nM | CCOc1cc(C#N)ccc1COc1cccc(-c2ccc(Cc3nc4ccc(C(=O)O)cc4n3CCOC)c(F)c2)n1 [Example 238, 2-(4-(6-((4-cyano-2-ethoxybenzyl)oxy)pyridin-2-yl)-2-fluorobenzyl)-1-(2-methoxyethyl)-1H-benzo[d]imidazole-6-carboxylic acid]
22 | <1.83 mL/min/kg | 7.49 nM | COCCn1c(Cc2ccc(-c3cccc(OCc4ccc(C#N)cc4F)n3)cc2Br)nc2ccc(C(=O)O)cc21 [Example 239, 2-(2-bromo-4-(6-((4-cyano-2-fluorobenzyl)oxy)pyridin-2-yl)benzyl)-1-(2-methoxyethyl)-1H-benzo[d]imidazole-6-carboxylic]
23 | 13.7 mL/min/kg | 6.82 nM | COCCn1c(Cc2ccc(-c3cccc(OCc4ccc(C#N)cc4F)n3)cc2C#CC2(CO)CC2)nc2ccc(C(=O)O)cc21 [Example 240, 2-(4-(6-((4-cyano-2-fluorobenzyl)oxy)pyridin-2-yl)-2-((1-(hydroxymethyl)cyclopropyl)ethynyl)benzyl)-1-(2-methoxyethyl)-1H-benzo[d]imidazole-6-carboxylic acid]
24 | 10.2 mL/min/kg | 0.88 nM | COCCn1c(Cc2ccc(-c3cccc(OCc4ccc(C#N)cc4OC)n3)cc2F)nc2ccc(C(=O)O)cc21 [Example 243, 2-(4-(6-((4-cyano-2-methoxybenzyl)oxy)pyridin-2-yl)-2-fluorobenzyl)-1-(2-methoxyethyl)-1H-benzo[d]imidazole-6-carboxylic acid]
